The experiment has as its target T1, CRF1 receptors (Homo sapiens, UniProt P34998).
T1 construct: endogenous in cells; host or cells: IMR-32 cells, transformed with 2.5 µM 5'-bromo-2'-deoxyuridine for 10 days; membrane preparation
T1 sequence (P34998 24-415): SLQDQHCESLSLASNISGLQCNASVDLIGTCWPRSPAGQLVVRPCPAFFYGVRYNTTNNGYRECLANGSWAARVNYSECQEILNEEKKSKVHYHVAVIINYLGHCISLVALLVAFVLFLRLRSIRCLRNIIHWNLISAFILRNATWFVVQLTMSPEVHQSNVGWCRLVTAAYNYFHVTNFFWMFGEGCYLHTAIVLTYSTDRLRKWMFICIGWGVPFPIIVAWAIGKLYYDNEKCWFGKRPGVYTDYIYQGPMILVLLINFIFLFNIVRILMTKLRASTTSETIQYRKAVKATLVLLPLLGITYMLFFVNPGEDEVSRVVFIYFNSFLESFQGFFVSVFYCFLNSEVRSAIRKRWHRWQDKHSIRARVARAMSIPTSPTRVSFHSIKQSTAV
Description: CRF1 receptor radioligand binding assay ([125I]-oCRF competition, IMR-32 cell membranes). The conditions noted are these: IMR-32 cell membranes, [125I]-oCRF 100 pM; read-out: Ki (CRF-1R). The method, boiled down:
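Buffer: Tris pH 7.2 with MgCl2, BSA, Triton X-100, aprotinin, leupeptin; reaction stopped with ice-cold wash and filtered. Nonspecific binding set with 10 μM oCRF.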

pKi: −log10 of the molar value.

Take `Cc1cc(C)c(N2CCCn3c2nc(C(F)(F)F)c3CN(CCc2ccccc2)CCC(F)(F)F)c(C)c1` [Example 81, Phenethyl-[2-trifluoromethyl-8-(2,4,6-trimethyl-phenyl)-5,6,7,8-tetrahydro-imidazo[1,2-a]pyrimidin-3-ylmethyl]-(3,3,3-trifluoro-propyl)-amine]: the pKi is over 6.00.

With `CCCN(CCc1ccccc1)Cc1c(C(F)(F)F)nc2n(-c3c(C)cc(C)cc3C)c3ncccc3n12` [Example 217, Phenethyl-propyl-[2-trifluoromethyl-8-(2,4,6-trimethyl-phenyl)-8H-1,3a,7,8-tetraaza-cyclopenta[α]inden-3-ylmethyl]-amine], the pKi was over 7.00. In the case of `Cc1cc(C)c(N2CCCn3c2nc(C(F)(F)F)c3CN2CCC(c3ccccc3)C2)c(C)c1` (centres unmarked) [Example 72, 3-(3-Phenyl-pyrrolidin-1-ylmethyl)-2-trifluoromethyl-8-(2,4,6-trimethyl-phenyl)-5,6,7,8-tetrahydro-imidazo[1,2-a]pyrimidine], the pKi is over 6.00. On to “(2,2,3,3,3-Pentafluoro-propyl)-(2,2,2-trifluoro-ethyl)-[2-trifluoromethyl-8-(2,4,6-trimethyl-phenyl)-8H-1,3a,8-triaza-cyclopenta[α]inden-3-ylmethyl]-amine [Example 162]”, for which the negative logarithm of the Ki (pKi) was over 6.00. In the case of `Cc1cc(C)c(N2CCCn3c2nc(C)c3C(=O)N(CC2CC2)CC2CC2)c(C)c1` [Example 58, 2-Methyl-8-(2,4,6-trimethyl-phenyl)-5,6,7,8-tetrahydro-imidazo[1,2-a]pyrimidine-3-carboxylic acid bis-cyclopropylmethyl-amide], the pKi is over 5.00. As for `CCN(CCC1CC1)Cc1c(C(F)(F)F)nc2n(-c3c(C)cc(C)cc3C)c3ncccc3n12` [Example 229, (2-Cyclopropyl-ethyl)-ethyl-[2-trifluoromethyl-8-(2,4,6-trimethyl-phenyl)-8H-1,3a,7,8-tetraaza-cyclopenta[α]inden-3-ylmethyl]-amine], the pKi is over 6.00. With `C=CCN(CC=C)Cc1c(C(F)(F)F)nc2n1CCCN2c1c(C)cc(C)cc1Cl` [Example 103, Diallyl-[8-(2-chloro-4,6-dimethyl-phenyl)-2-trifluoromethyl-5,6,7,8-tetrahydro-imidazo[1,2-a]pyrimidin-3-ylmethyl]-amine] the figure was over 7.00; with `CCc1nc2n(c1C(=O)N(CCC(F)(F)F)Cc1ccccc1)CCN2c1c(C)cc(C)cc1C` [Example 18, 2-Ethyl-7-(2,4,6-trimethyl-phenyl)-6,7-dihydro-5H-imidazo[1,2-a]imidazole-3-carboxylic acid benzyl-(3,3,3-trifluoro-propyl)-amide], over 6.00. Regarding `CCc1nc2n(c1C(=O)N(CCC(F)(F)F)Cc1ccc(Cl)cc1)CCN2c1c(C)cc(C)cc1C` [Example 14, 2-Ethyl-7-(2,4,6-trimethyl-phenyl)-6,7-dihydro-5H-imidazo[1,2-a]imidazole-3-carboxylic acid (4-chloro-benzyl)-(3,3,3-trifluoro-propyl)-amide], the negative logarithm of the Ki (pKi) is over 6.00.

Regarding `CCCN(Cc1c(C(F)(F)F)nc2n1CCCN2c1c(C)cc(C)cc1C)CC(F)(F)C(F)(F)F` [Example 80, (2,2,3,3,3-Pentafluoro-propyl)-propyl-[2-trifluoromethyl-8-(2,4,6-trimethyl-phenyl)-5,6,7,8-tetrahydro-imidazo[1,2-a]pyrimidin-3-ylmethyl]-amine], the pKi is over 6.00. On to `CCCCN(CC)Cc1c(C(F)(F)F)nc2n1CCCN2c1c(C)cc(C)cc1C` [Example 70, Butyl-ethyl-[2-trifluoromethyl-8-(2,4,6-trimethyl-phenyl)-5,6,7,8-tetrahydro-imidazo[1,2-a]pyrimidin-3-ylmethyl]-amine], for which the negative logarithm of the Ki (pKi) is over 6.00.

Regarding `C=CCN(CC=C)Cc1c(C(F)(F)F)nc2n(-c3c(C)cc(C)cc3C)c(Cl)cn12` [Example 345, Diallyl-[6-chloro-2-trifluoromethyl-7-(2,4,6-trimethyl-phenyl)-7H-imidazo[1,2-a]imidazol-3-ylmethyl]-amine], the pKi was over 8.00. With `CCN(Cc1ccccc1)Cc1c(C(F)(F)F)nc2n(-c3c(C)cc(C)cc3C)c3ncccc3n12` [Example 233, Benzyl-ethyl-[2-trifluoromethyl-8-(2,4,6-trimethyl-phenyl)-8H-1,3a,7,8-tetraaza-cyclopenta[α]inden-3-ylmethyl]-amine] the figure was over 5.00; with `CCCN(CC1CC1)C(=O)c1c(C)nc2n(-c3c(C)cc(C)cc3C)c3ccccc3n12` [Example 140, 2-Methyl-8-(2,4,6-trimethyl-phenyl)-8H-1,3a,8-triaza-cyclopenta[α]indene-3-carboxylic acid cyclopropylmethyl-propyl-amide], over 6.00. For `CCC=C(CCC)c1c(CC)nc2n1CCN2c1c(C)cc(C)cc1Cl` [Example 50, 1-(2-Chloro-4,6-dimethyl-phenyl)-6-ethyl-5-(1-propyl-but-1-enyl)-2,3-dihydro-1H-imidazo[1,2-a]imidazole], the negative-log Ki (pKi) is over 7.00. As to `Cc1cc(C)c(-n2c(Cl)cn3c(CN(CCC(F)(F)F)Cc4ccc(F)cc4)c(C(F)(F)F)nc23)c(C)c1` [Example 333], the pKi was over 7.00. Turning to `Cc1cc(C)c(-n2c(Cl)cn3c(CN(C)CCc4ccccc4)c(C(F)(F)F)nc23)c(C)c1` [Example 308, [6-Chloro-2-trifluoromethyl-7-(2,4,6-trimethyl-phenyl)-7H-imidazo[1,2-a]imidazol-3-ylmethyl]-methyl-phenethyl-amine], the negative logarithm of the Ki (pKi) was over 6.00. For the compound `CCCN(CCC(F)(F)F)Cc1c(C(F)(F)F)nc2n(-c3c(C)cc(C)cc3C)c3ncccc3n12` [Example 221, Propyl-[2-trifluoromethyl-8-(2,4,6-trimethyl-phenyl)-8H-1,3a,7,8-tetraaza-cyclopenta[α]inden-3-ylmethyl]-(3,3,3-trifluoro-propyl)-amine], the negative logarithm of the Ki (pKi) is over 6.00. As for `CCCN(CC1CC1)C(=O)c1c(CC)nc2n(-c3c(C)cc(C)cc3C)c(Cl)cn12` [Example 290, 6-Chloro-2-ethyl-7-(2,4,6-trimethylphenyl)-7H-imidazo[1,2-a]imidazole-3-carboxylic acid N-cyclopropylmethyl-N-propylamide], the pKi is over 7.00. On to `CCc1nc2n(c1C(=O)N(CC)CC1CC1)CCN2c1ccc(C(C)C)cc1Br` [Example 40, 7-(2-Bromo-4-isopropyl-phenyl)-2-ethyl-6,7-dihydro-5H-imidazo[1,2-a]imidazole-3-carboxylic acid cyclopropylmethyl-ethyl-amide], for which the pKi was over 5.00. With `C=CCN(CC=C)Cc1c(C(F)(F)F)nc2n(-c3c(C)cc(C)cc3C)c3ccccc3n12` [Example 160, Diallyl-[2-trifluoromethyl-8-(2,4,6-trimethyl-phenyl)-8H-1,3a,8-triaza-cyclopenta[α]inden-3-ylmethyl]-amine], the pKi was over 6.00.

For `CCCN(CC1CC1)C(=O)c1c(CC)nc2n1CCN2c1c(C)cc(C)cc1Br` [Example 46, 7-(2-Bromo-4,6-dimethyl-phenyl)-2-ethyl-6,7-dihydro-5H-imidazo[1,2-a]imidazole-3-carboxylic acid cyclopropylmethyl-propyl-amide], the pKi was over 5.00. On to `CCCN(Cc1c(C(F)(F)F)nc2n(-c3ccc(C(C)C)cc3Br)c3ccccc3n12)CC1CCC1` [Example 195, [8-(2-Bromo-4-isopropyl-phenyl)-2-trifluoromethyl-8H-1,3a,8-triaza-cyclopenta[α]inden-3-ylmethyl]-cyclobutylmethyl-propyl-amine], for which the pKi was over 6.00.

In general, pKi refers to −log10 of the Ki, conventionally taken in molar units.

For the origin of these results see patent publication US7125990B2, “Imidazolyl derivatives as corticotropin releasing factor inhibitors” (Bristol-Myers Squibb COmpany, priority 2001, dated 2006).
